The values that follow are results of earlier work, collected in US20120164100A1, “TEMPERATURE SENSITIVE HYDROGEL AND BLOCK COPOLYMERS” (priority 2010, published 2012).

With `CCCCC[C@H](O)/C=C/[C@H]1[C@H](O)CC(=O)[C@@H]1C/C=C\CCCC(=O)O` [PGE2, Prostaglandin E2], the solubility result (pH above 6, Critical Micelle Concentration) was “about 5 mg/mL”. Moreover, where the note is “physiological condition”, the half life entry is “very short”.
